“Also recorded” adds a separate entry of the source.
How the values were obtained:
opioid binding sites = conditions: cited from earlier work
[1] = test system: benzodiazepine binding sites; conditions: cited from earlier work
D1 receptors = D1 receptors (Homo sapiens, UniProt P21728); conditions: cited from earlier work
α1 receptors = conditions: cited from earlier work
mACh receptors = conditions: cited from earlier work
H1 receptors = H1 receptors (Homo sapiens, UniProt P35367); conditions: cited from earlier work
Chain of H1 receptors (P35367 whole entry): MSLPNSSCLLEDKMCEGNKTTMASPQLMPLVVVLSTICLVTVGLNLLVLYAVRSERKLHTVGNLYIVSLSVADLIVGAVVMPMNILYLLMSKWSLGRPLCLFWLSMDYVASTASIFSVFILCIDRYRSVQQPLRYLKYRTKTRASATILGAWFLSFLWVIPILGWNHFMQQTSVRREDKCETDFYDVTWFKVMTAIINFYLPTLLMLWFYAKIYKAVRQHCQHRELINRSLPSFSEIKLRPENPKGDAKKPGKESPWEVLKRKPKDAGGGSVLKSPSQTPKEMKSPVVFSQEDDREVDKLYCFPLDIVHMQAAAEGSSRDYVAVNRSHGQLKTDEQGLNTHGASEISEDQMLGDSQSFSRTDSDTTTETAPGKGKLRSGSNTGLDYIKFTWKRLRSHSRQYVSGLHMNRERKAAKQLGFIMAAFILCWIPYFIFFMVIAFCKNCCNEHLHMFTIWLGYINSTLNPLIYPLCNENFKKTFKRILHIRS

D2 receptors = D2 receptors (Homo sapiens, UniProt P14416); conditions: cited from earlier work
Chain of D2 receptors (P14416 whole entry): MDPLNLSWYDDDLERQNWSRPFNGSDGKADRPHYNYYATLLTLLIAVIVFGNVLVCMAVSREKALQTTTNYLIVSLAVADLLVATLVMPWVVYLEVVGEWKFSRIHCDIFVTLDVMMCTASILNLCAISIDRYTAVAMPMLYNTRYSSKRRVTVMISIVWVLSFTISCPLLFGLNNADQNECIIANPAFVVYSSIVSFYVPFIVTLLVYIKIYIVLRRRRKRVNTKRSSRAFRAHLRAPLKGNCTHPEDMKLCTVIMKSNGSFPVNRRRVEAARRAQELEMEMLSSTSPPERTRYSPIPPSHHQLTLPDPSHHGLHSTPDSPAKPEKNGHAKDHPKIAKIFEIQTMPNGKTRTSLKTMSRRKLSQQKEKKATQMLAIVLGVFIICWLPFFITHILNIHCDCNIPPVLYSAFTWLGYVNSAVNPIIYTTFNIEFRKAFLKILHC

[2] = test system: pain associated with fibromyalgia; experiment: Combinatorial therapy of milnacipran and VRNT or virtual reality distraction therapy for fibromyalgia; assay type: in vivo, patient
Text: In an exemplary embodiment, a combinatorial therapeutic system for treating fibromyalgia includes a serotonin-norepinephrine reuptake inhibitor (SNRI) and an artificial sensory experience. The SNRI can include milnacipran, specifically, and in some embodiments, the SNRI can include other SNRIs commonly prescribed to treat fibromyalgia (e.g., duloxetine). Similar to those combinatorial systems described above, the artificial sensory experience combined with the SNRI (preferably milnacipran) can include any of 2D/3D/4D artificial sensory experiences, holography, augmented reality, virtual reality, and/or mixed reality. In an exemplary embodiment, the artificial sensory experience is VRNT or virtual reality distraction therapy.
In some embodiments, the combinatorial treatment systems and methods for treating/mitigating pain associated with fibromyalgia can have similar results to those illustrated and described with respect to FIGS. 5A, 5B, 5C, 6A, and 6B.

pain [3] = conditions: reported; cited from earlier work
[4] = relative to tramadol and morphine; cited from earlier work
pain [5] = experiment: Combinatorial therapy of opioid analgesic and VRNT: patient's amount of pain over time (FIGS. 5A-5C); assay type: in vivo; conditions: opioid analgesic in combination with VRNT, potential patient responses
Text: FIGS. 5A-5C illustrate exemplary graphs of potential effects of combinatorial therapeutic systems/methods employing tapentadol and VRNT on a patient's amount of pain over time; and
The synergistic effects of the disclosed combinatorial therapeutic systems/methods can be exemplified in a plurality of responses. For example, FIGS. 5A-5C illustrate a combinatorial therapy using tapentadol (as the opioid analgesic) and VRNT (as the artificial sensory experience) with different potential patient responses. As many, if not all, patients may experience the synergistic benefits afforded by the disclosed combinatorial therapeutic systems/methods as an average benefit, the individual-specific responses may be different.

Chain of D1 receptors (P21728 whole entry): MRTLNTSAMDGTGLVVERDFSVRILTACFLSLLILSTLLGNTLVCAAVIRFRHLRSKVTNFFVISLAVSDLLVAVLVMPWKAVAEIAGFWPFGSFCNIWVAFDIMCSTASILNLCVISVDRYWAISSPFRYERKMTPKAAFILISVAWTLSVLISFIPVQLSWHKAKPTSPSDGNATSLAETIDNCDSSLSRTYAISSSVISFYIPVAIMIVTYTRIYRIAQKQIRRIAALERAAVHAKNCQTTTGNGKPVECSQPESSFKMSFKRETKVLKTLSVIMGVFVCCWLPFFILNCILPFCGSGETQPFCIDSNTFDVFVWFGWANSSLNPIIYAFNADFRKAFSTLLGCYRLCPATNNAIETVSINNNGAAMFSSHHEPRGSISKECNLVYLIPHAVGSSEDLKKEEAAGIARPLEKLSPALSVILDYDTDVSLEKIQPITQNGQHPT

Compound | actions on opioid binding sites (opioid binding sites) | actions on benzodiazepine binding sites [1] | actions on D1 receptors (D1 receptors) | actions on α1 receptors (α1 receptors) | actions on mACh receptors (mACh receptors) | actions on H1 receptors (H1 receptors) | actions on D2 receptors (D2 receptors) | pain over time [2] | pain reduction / efficacy versus placebo (pain [3]) | potency [4] | patient's amount of pain over time (pain [5])
CCN(CC)C(=O)C1(c2ccccc2)CC1CN (centres unmarked) [milnacipran] | no significant actions | no significant actions | no significant actions | no significant actions | no significant actions | no significant actions | no significant actions | decrease in pain over time |  |  | 
CC[C@@H](c1cccc(O)c1)[C@@H](C)CN(C)C [tapentadol] |  |  |  |  |  |  |  |  | limited efficacy beyond placebo; also recorded: only marginal incremental pain reduction versus placebo | somewhere between tramadol, another synthetic opioid, and morphine | constant or linear decrease in pain over time; also recorded: cyclical decrease and increase in pain levels over time with an overall decreasing pain level; also recorded: step-wise reduction in pain levels

Reference: patent US11717639B2, “Combinatorial therapeutic systems and methods” (Cognifisense, Inc., priority 2018, dated 2023)
